Converted amounts (≈) assume the structure as drawn.
details: buffer; pH 7.4; 200.0 µM

Structure (SMILES)	solubility kinetic [µg/mL]
Cc1cccc(N2C(=NC(=O)c3ccccc3)SC3CS(=O)(=O)CC32)c1 (centres undefined)	< 0.4
CCOC(=O)C1=C(C)NC(C)=C(C(=O)OCC)C1C(=O)OCC(=O)NC1CCCCC1	> 65.5
COc1ccc(NC(=O)c2ccc(NC(=O)CN3CCN(c4ccccc4)CC3)cc2)cc1	1.4 (≈ 3.15 µM)
COc1ccccc1NC(=O)[C@@H]1CCCN1S(=O)(=O)c1ccc(Cl)cc1	32.4 (≈ 82.1 µM)
COC(=O)c1sccc1NC(=O)CSc1ccccc1N	20.8 (≈ 64.5 µM)
Cc1cccc(NC(=O)CN(CCc2ccccc2)S(C)(=O)=O)c1	> 52
O=C(COC(=O)c1ccc([N+](=O)[O-])s1)NNC(=O)c1ccccc1	> 52.4
O=C(CCCc1cccs1)Nc1nccs1	26.8 (≈ 106 µM)
CCn1c(=O)c2cc(C(=O)NCCC(C)C)sc2c2ccccc21	< 0.4
O=C(NCCN1CCCCC1)Nc1cccc(C(F)(F)F)c1	> 47.3
CCCOc1cccc(C(=O)Nc2ccc(CN3CCOCC3)cc2)c1	47.2 (≈ 133 µM)
CC(C)C(OC(=O)c1cccs1)C(=O)NCCc1ccccc1 (centres undefined)	45.8 (≈ 138 µM)
Nc1ccccc1-n1c(=O)n(Cc2ccccc2F)c(=O)c2[nH]cnc21	35 (≈ 99.6 µM)
COc1ccccc1OCC(=O)NC1CCCCCCC1	40.8 (≈ 140 µM)
CC(=O)ONC(=Nc1ccccc1)c1nonc1N	> 39.2
Cc1ccccc1N1C(=O)c2ccccc2C1O (centres undefined)	35.8 (≈ 150 µM)
CC(=O)c1c(C)nc(Nc2nc(C)c3cc(C)ccc3n2)nc1C	> 48.2
Cc1cccnc1NC(=O)c1ccc2c(c1)OCCO2	> 40.5
O=C(Cc1ccccc1)NCC(=O)N1CCN(Cc2cccc(Cl)c2)CC1	> 57.9
CC(=O)c1c[nH]c(C(=O)NCc2ccccc2Cl)c1	3.5 (≈ 12.6 µM)

Structure (SMILES)	solubility kinetic [µg/mL]
CCN(Cc1nc(-c2ccc(Cl)cc2)no1)CC1CCCO1 (centres undefined)	25.8 (≈ 80.2 µM)
COc1cccc(CN(C)C(c2ccccc2)c2ccccc2)c1OC	1.7 (≈ 4.89 µM)
CC(C)CN=Cc1c(O)c([N+](=O)[O-])cc2oc3c(c12)CCCC3	6.5 (≈ 20.5 µM)
C/C(O)=c1/c(=O)nc2cccc3c2=c1c1ccccc1c3=O	< 0.6
C[C@@H](C(=O)Nc1ccc(SC(F)F)cc1)N1C(=O)C2CCCCC2C1=O (some centres undefined)	52.5 (≈ 137 µM)
OCCNCCc1c[nH]c2ccc(OCc3ccccc3)cc12	> 46.6
Cc1cccc(C)c1NC(=O)c1cccc(C(=O)Nc2c(C)cccc2C)n1	27.7 (≈ 74.2 µM)
COc1ccc(/C=N/NC(=O)c2ccccc2O)cc1COc1ccccn1	> 56.6
Cc1ccc(OCc2cc(C(=O)NC3CCOC3)no2)cc1C (centres undefined)	33.1 (≈ 105 µM)
O=C(O)CN1C(=O)NC2(CCc3ccccc32)C1=O (centres undefined)	> 39
CN(C)CCN(C(=O)c1ccc2ccccc2c1)c1nc2ccc(Br)cc2s1.Cl	3.6
CCCN(CCO)C1CCN(CCc2ccccc2)CC1	27.4 (≈ 94.3 µM)
Cc1ccccc1CC(=O)N1CCN(C(=O)C2CCCO2)CC1 (centres undefined)	> 47.5
CCCn1c(=O)c2[nH]cnc2n(-c2ccccc2C)c1=O	> 42.6
COc1ccc(S(=O)(=O)NCc2cccnc2)cc1Br	35.5 (≈ 99.4 µM)
COc1cccc(C(O)c2nc3ccccc3n2C)c1 (centres undefined)	28.9 (≈ 108 µM)
Cc1ccc(CN(Cc2ccco2)C(=O)c2ccco2)cc1	35.4 (≈ 120 µM)
Cc1noc(C)c1C(=O)Nc1ccc(C#N)cc1	> 36.2
CCSc1ccccc1C(=O)Nc1ccc([N+](=O)[O-])cc1OC	1.4 (≈ 4.21 µM)
CC(c1ccccc1)n1cnc2ccccc2c1=O (centres undefined)	> 37.5

Structure (SMILES)	solubility kinetic [µg/mL]
O=C(c1cccc([N+](=O)[O-])c1)c1ccccn1	> 34.2
COc1cc(CN2CCc3ccccc3C2)cc([N+](=O)[O-])c1O	42.1 (≈ 134 µM)
COc1cc(C(=O)NC2CC(C)(C)NC(C)(C)C2)cc(OC)c1OC	> 52.6
CSc1ccccc1NC(=O)Cc1ccccc1[N+](=O)[O-]	5.7 (≈ 18.9 µM)
O=C(COC(=O)c1cc(Cl)ccc1O)Nc1cc(C(F)(F)F)ccc1N1CCOCC1	3.5 (≈ 7.63 µM)
O=C(OCN1C(=O)C(=O)c2ccccc21)c1ccc(Cl)cc1	44 (≈ 139 µM)
COCCNC(=O)CN1C(=O)NC2(CCOc3ccccc32)C1=O (centres undefined)	42.9 (≈ 129 µM)
O=C(Nc1ccc(F)cc1)c1cccc2ccccc12	< 0.6
C#CC(CCN1CCCCC1)(OC)c1ccccc1.Cl (centres undefined)	27.2
Cc1ccc(C)c(C(=O)COC(=O)CN2C(=O)C3C4CCC(C4)C3C2=O)c1 (centres undefined)	> 55.4
Clc1ccccc1CN1CCN(c2cccc3[nH]ccc23)CC1	23.5 (≈ 72.1 µM)
CCN(C(=O)COC(=O)Cc1c[nH]c2ccccc12)C1CCS(=O)(=O)C1 (centres undefined)	> 56.8
CCOC(=O)c1ccc(Nc2ncnc3ccccc23)cc1.Cl	1.7
CSc1ncccc1C(=O)OCC(=O)C(C)(C)C	39.6 (≈ 148 µM)
O=C(O)c1ccc(S(=O)(=O)N2CCCC2)cc1	37.6 (≈ 147 µM)
NC(=O)COC(=O)c1sc2ccccc2c1Cl	12.4 (≈ 46 µM)
COc1cc(C(=O)NC(C)C2CC3CCC2C3)cc(OC)c1OC (centres undefined)	9.8 (≈ 29.4 µM)
CSc1nc2cc(Oc3cccc(Cl)c3Cl)c(Cl)cc2[nH]1	0.5 (≈ 1.39 µM)
CCOC(=O)C1=C(O)/C(=C\c2ccc(O)c(OCC)c2)N=C1C	36.1 (≈ 114 µM)

— PubChem BioAssay AID1996
